Assay results from patent US20240287124A1, “PRODRUGS OF 4'-SUBSTITUTED NUCLEOSIDE REVERSE TRANSCRIPTASE INHIBITORS” (Merck Sharp & Dohme LLC, priority 2023, published 2024).
In brackets after ≈: the same amount, converted by molar mass. Where two headings read alike, the source gives them in different places.

Assays:
[1] = test system: HIV-1 wild-type (R8) virus; test: Viral KINetics in Green cells (VIKING) assay, HIV-1 replication in MT4-GFP reporter cells; format: cell-based; details: MT4-GFP cells, HIV-1 wild-type (R8), read-out: Viking (10% NHS), IC50
Summary of the method: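 Compounds in 3-fold, 10-point series (typical 4 μM-0.2 nM) in 10% normal human serum received MT4 GFP-reporter T cells pre-infected overnight with wild-type R8 virus (MOI ~0.01). Ratio of GFP-positive cells at 72 vs 48 h defined replication; IC50 from nonlinear 4-parameter dose-response fitting.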

[2] = Aqueous solubility in PBS, pH 7.4; format: physicochemical; details: pH 7.4 phosphate buffered saline, 24 hours, amorphous or crystalline material; for solubility at 24 h: phosphate buffered saline, pH 7.4, aqueous buffer, thermodynamic from solid, read-out: Aqu. Solubility
Summary of the method: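 Excess solid suspended at 0.5 mg/mL in PBS pH 7.4 and stirred 24 hours. Filtrate (0.45 μm) diluted 1:1 with ACN:H2O and quantified by UPLC against a standard curve; residual solid phase checked by XRPD and PLM.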

[3] = Human immunodeficiency virus 1, 10% normal human serum

## C#C[C@]1(COC(=O)CC(C)(C)C)O[C@@H](n2ccc3c(N)nc(Cl)nc32)C[C@@H]1O [Example 89]
[1]; [3]
  IC50: 29 nM
[2]
  solubility at 24 h: 365 µg/mL (≈ 897 µM)

## C#C[C@]1(COC(=O)OCc2ccccc2)O[C@@H](n2ccc3c(N)nc(Cl)nc32)C[C@@H]1O [Example 122]
[1]; 10% normal human serum
  IC50: 4 nM
[2]
  Aqu. Solubility: 107 µg/mL

## C#C[C@]1(CO)O[C@@H](n2ccc3c(N)nc(Cl)nc32)C[C@@H]1OC(=O)OCCCCCCC [Example 153]
[1]; [3]
  IC50: 3.8 nM
[2]
  solubility at 24 h: < 1 µg/mL

## C#C[C@]1(COC(=O)OCCCCCCCCCCCC)O[C@@H](n2ccc3c(N)nc(Cl)nc32)C[C@@H]1O [Example 117]
[1]; [3]
  IC50: 4 nM
[2]
  solubility at 24 h: < 1 µg/mL

## C#C[C@]1(CO)O[C@@H](n2ccc3c(N)nc(Cl)nc32)C[C@@H]1OC(=O)CCc1ccccc1 [Example 81]
[1]; [3]
  IC50: 3.3 nM
[2]
  solubility at 24 h: 2 µg/mL (≈ 4.54 µM)

## C#C[C@]1(CO)O[C@@H](n2ccc3c(N)nc(Cl)nc32)C[C@@H]1OC(C)=O [Example 180]
[1]; [3]
  IC50: 27 nM
[2]
  solubility at 24 h: 257 µg/mL (≈ 733 µM)

## C#C[C@]1(COC(=O)Cc2ccc(Br)cc2)O[C@@H](n2ccc3c(N)nc(Cl)nc32)C[C@@H]1O [Example 73, ((2R,3S,5R)-5-(4-amino-2-chloro-7H-pyrrolo[2,3-d]pyrimidin-7-yl)-2-ethynyl-3-hydroxytetrahydrofuran-2-yl)methyl 2-(4-bromophenyl)acetate]
[1]; [3]
  IC50: 3.2 nM
[2]
  solubility at 24 h: 24 µg/mL (≈ 47.5 µM)

## C#C[C@]1(COC(=O)Oc2ccccc2)O[C@@H](n2ccc3c(N)nc(Cl)nc32)C[C@@H]1O [Example 17, ((2R,3S,5R)-5-(4-amino-2-chloro-7H-pyrrolo[2,3-d]pyrimidin-7-yl)-2-ethynyl-3-hydroxytetrahydrofuran-2-yl)methyl phenyl carbonate]
[1]; [3]
  IC50: 1.4 nM
[2]
  solubility at 24 h: 164 µg/mL (≈ 382 µM)

## C#C[C@]1(CO)O[C@@H](n2ccc3c(N)nc(Cl)nc32)C[C@@H]1OC(=O)OCCC [Example 80]
[1]; [3]
  IC50: 10 nM
[2]
  solubility at 24 h: 305 µg/mL (≈ 773 µM)

## C#C[C@]1(CO)O[C@@H](n2ccc3c(N)nc(Cl)nc32)C[C@@H]1OC(=O)Cc1ccc(Br)cc1 [Example 181]
[1]; [3]
  IC50: 4 nM
[2]
  solubility at 24 h: < 1 µg/mL

## C#C[C@]1(CO)O[C@@H](n2ccc3c(N)nc(Cl)nc32)C[C@@H]1OC(=O)C(CCC)CCC [Example 52, (2R,3S,5R)-5-(4-amino-2-chloro-7H-pyrrolo[2,3-d]pyrimidin-7-yl)-2-ethynyl-2-(hydroxymethyl)tetrahydrofuran-3-yl 2-propylpentanoate]
[1]; [3]
  IC50: 337 nM
[2]
  solubility at 24 h: 2.4 µg/mL (≈ 5.52 µM)

## C#C[C@]1(CO)O[C@@H](n2ccc3c(N)nc(Cl)nc32)C[C@@H]1OC(=O)OCCOC(C)=O [Example 156]
[1]; [3]
  IC50: 3.2 nM
[2]
  solubility at 24 h: 66 µg/mL (≈ 150 µM)

## C#C[C@]1(COC(=O)OCCCCC[C@@H]2SC[C@@H]3NC(=O)N[C@@H]32)O[C@@H](n2ccc3c(N)nc(Cl)nc32)C[C@@H]1OC(=O)OCC [Example 171]
[1]; [3]
  IC50: 18 nM
[2]
  solubility at 24 h: 1.9 µg/mL (≈ 2.98 µM)

## C#C[C@]1(COC(=O)Cc2ccc(F)cc2)O[C@@H](n2ccc3c(N)nc(Cl)nc32)C[C@@H]1OC(=O)Cc1ccc(F)cc1 [Example 29, (2R,3S,5R)-5-(4-amino-2-chloro-7H-pyrrolo[2,3-d]pyrimidin-7-yl)-2-ethynyl-2-((2-(4-fluorophenyl)acetoxy)methyl)tetrahydrofuran-3-yl 2-(4-fluorophenyl)acetate]
[1]; [3]
  IC50: 5.8 nM
[2]
  solubility at 24 h: < 1 µg/mL

## C#C[C@]1(CO)O[C@@H](n2ccc3c(NC(=O)CCCC)nc(Cl)nc32)C[C@@H]1O [Example 22, N-(2-chloro-7-((2R,4S,5R)-5-ethynyl-4-hydroxy-5-(hydroxymethyl)tetrahydrofuran-2-yl)-7H-pyrrolo[2,3-d]pyrimidin-4-yl)pentanamide]
[1]; [3]
  IC50: 199 nM
[2]
  solubility at 24 h: 362 µg/mL (≈ 921 µM)

## C#C[C@]1(COP(=O)(N[C@@H](C)C(=O)OC(C)C)Oc2ccc3ccccc3c2)O[C@@H](n2ccc3c(N)nc(Cl)nc32)C[C@@H]1O (stereo partly shown) [Example 76]
[1]; 10% normal human serum
  IC50: 31 nM
[2]
  Aqu. Solubility: 23 µg/mL

## C#C[C@]1(CO)O[C@@H](n2ccc3c(N)nc(Cl)nc32)C[C@@H]1OC(=O)OCCC12CC3CC(CC(C3)C1)C2 [Example 36, 2-(adamantan-1-yl)ethyl ((2R,3S,5R)-5-(4-amino-2-chloro-7H-pyrrolo[2,3-d]pyrimidin-7-yl)-2-ethynyl-2-(hydroxymethyl)tetrahydrofuran-3-yl) carbonate]
[1]; [3]
  IC50: 5.5 nM
[2]
  solubility at 24 h: < 1 µg/mL

## C#C[C@]1(CO)O[C@@H](n2ccc3c(N)nc(Cl)nc32)C[C@@H]1OC(=O)CCCCCCCC [Example 55, (2R,3S,5R)-5-(4-amino-2-chloro-7H-pyrrolo[2,3-d]pyrimidin-7-yl)-2-ethynyl-2-(hydroxymethyl)tetrahydrofuran-3-yl nonanoate]
[1]; [3]
  IC50: 2.2 nM
[2]
  solubility at 24 h: < 1 µg/mL

## C#C[C@]1(COC(=O)OCCCCCCC)O[C@@H](n2ccc3c(N)nc(Cl)nc32)C[C@@H]1O [Example 121]
[1]; [3]
  IC50: 3.1 nM
[2]
  solubility at 24 h: 7 µg/mL (≈ 15.5 µM)

## C#C[C@]1(CO)O[C@@H](n2ccc3c(N)nc(Cl)nc32)C[C@@H]1OC(=O)CCCCCCCCCCCCC [Example 26, (2R,3S,5R)-5-(4-amino-2-chloro-7H-pyrrolo[2,3-d]pyrimidin-7-yl)-2-ethynyl-2-(hydroxymethyl)tetrahydrofuran-3-yl tetradecanoate]
[1]; [3]
  IC50: 7 nM
[2]
  solubility at 24 h: < 1 µg/mL

## C#C[C@]1(COC(=O)CCCCCCCCC)O[C@@H](n2ccc3c(N)nc(Cl)nc32)C[C@@H]1O [Example 20, ((2R,3S,5R)-5-(4-amino-2-chloro-7H-pyrrolo[2,3-d]pyrimidin-7-yl)-2-ethynyl-3-hydroxytetrahydrofuran-2-yl)methyl decanoate]
[1]; [3]
  IC50: 2.8 nM
[2]
  solubility at 24 h: < 1 µg/mL

## C#C[C@]1(CO)O[C@@H](n2ccc3c(N)nc(Cl)nc32)C[C@@H]1OC(=O)OCCCCCCCC [Example 79]
[1]; [3]
  IC50: 4.3 nM
[2]
  solubility at 24 h: < 1 µg/mL

## C#C[C@]1(CO)O[C@@H](n2ccc3c(N)nc(Cl)nc32)C[C@@H]1OC(=O)CC [Example 65, (2R,3S,5R)-5-(4-amino-2-chloro-7H-pyrrolo[2,3-d]pyrimidin-7-yl)-2-ethynyl-2-(hydroxymethyl)tetrahydrofuran-3-yl propionate]
[1]; [3]
  IC50: 26 nM
[2]
  solubility at 24 h: 224 µg/mL (≈ 614 µM)

## C#C[C@]1(COCOC(=O)CCCCCCCCC)O[C@@H](n2ccc3c(N)nc(Cl)nc32)C[C@@H]1O [Example 136]
[1]; [3]
  IC50: 3.2 nM
[2]
  solubility at 24 h: < 1 µg/mL

## C#C[C@]1(COC(=O)CCCC[C@@H]2SC[C@@H]3NC(=O)N[C@@H]32)O[C@@H](n2ccc3c(N)nc(Cl)nc32)C[C@@H]1OC(=O)CCCc1ccccc1 [Example 190]
[1]; [3]
  IC50: 6.5 nM
[2]
  solubility at 24 h: < 1 µg/mL

## C#C[C@]1(COC(=O)OCc2ccn(C)c(=O)c2)O[C@@H](n2ccc3c(N)nc(Cl)nc32)C[C@@H]1OC(=O)OCc1ccn(C)c(=O)c1 [Example 226]
[1]; [3]
  IC50: 13 nM
[2]
  solubility at 24 h: 19 µg/mL (≈ 29.7 µM)

## C#C[C@]1(COC(=O)Cc2ccc(Cl)cc2)O[C@@H](n2ccc3c(N)nc(Cl)nc32)C[C@@H]1O [Example 33, ((2R,3S,5R)-5-(4-amino-2-chloro-7H-pyrrolo[2,3-d]pyrimidin-7-yl)-2-ethynyl-3-hydroxytetrahydrofuran-2-yl)methyl 2-(4-chlorophenyl)acetate]
[1]; [3]
  IC50: 2.4 nM
[2]
  solubility at 24 h: 41 µg/mL (≈ 88.9 µM)

## C#C[C@]1(COC(=O)[C@@H](C)c2ccccc2)O[C@@H](n2ccc3c(N)nc(Cl)nc32)C[C@@H]1O [Example 101]
[1]; [3]
  IC50: 3.4 nM
[2]
  solubility at 24 h: 19 µg/mL (≈ 43.1 µM)

## C#C[C@]1(CO)O[C@@H](n2ccc3c(N)nc(Cl)nc32)C[C@@H]1OC(=O)OCc1ccccc1 [Example 27, (2R,3S,5R)-5-(4-amino-2-chloro-7H-pyrrolo[2,3-d]pyrimidin-7-yl)-2-ethynyl-2-(hydroxymethyl)tetrahydrofuran-3-ylbenzyl carbonate]
[1]; [3]
  IC50: 3.1 nM
[2]
  solubility at 24 h: < 1 µg/mL

## C#C[C@]1(COC(=O)CCCCCCCCCCCCC)O[C@@H](n2ccc3c(N)nc(Cl)nc32)C[C@@H]1O [Example 87]
[1]; [3]
  IC50: 3.8 nM
[2]
  solubility at 24 h: < 1 µg/mL

## C#C[C@]1(CO)O[C@@H](n2ccc3c(N)nc(Cl)nc32)C[C@@H]1OC(=O)OCC(CC)CC [Example 78]
[1]; [3]
  IC50: 6.7 nM
[2]
  solubility at 24 h: 2 µg/mL (≈ 4.58 µM)

## C#C[C@]1(COCOC(=O)OCCCCCCCCCCCC)O[C@@H](n2ccc3c(N)nc(Cl)nc32)C[C@@H]1O [Example 134]
[1]; [3]
  IC50: 3.7 nM
[2]
  solubility at 24 h: < 1 µg/mL

## C#C[C@]1(COC(=O)Cc2ccc(Cl)cc2)O[C@@H](n2ccc3c(N)nc(Cl)nc32)C[C@@H]1OC(=O)Cc1ccc(Cl)cc1 [Example 34, (2R,3S,5R)-5-(4-amino-2-chloro-7H-pyrrolo[2,3-d]pyrimidin-7-yl)-2-((2-(4-chlorophenyl)acetoxy)methyl)-2-ethynyltetrahydrofuran-3-yl 2-(4-chlorophenyl)acetate]
[1]; [3]
  IC50: 6.1 nM
[2]
  solubility at 24 h: < 1 µg/mL

## C#C[C@]1(COC(=O)Cc2ccc(F)cc2)O[C@@H](n2ccc3c(N)nc(Cl)nc32)C[C@@H]1O [Example 37, ((2R,3S,5R)-5-(4-amino-2-chloro-7H-pyrrolo[2,3-d]pyrimidin-7-yl)-2-ethynyl-3-hydroxytetrahydrofuran-2-yl)methyl 2-(4-fluorophenyl)acetate]
[1]; [3]
  IC50: 2.3 nM
[2]
  solubility at 24 h: 118 µg/mL (≈ 265 µM)

## C#C[C@]1(COC(=O)CCC23CC4CC(CC(C4)C2)C3)O[C@@H](n2ccc3c(N)nc(Cl)nc32)C[C@@H]1O [Example 62, ((2R,3S,5R)-5-(4-amino-2-chloro-7H-pyrrolo[2,3-d]pyrimidin-7-yl)-2-ethynyl-3-hydroxytetrahydrofuran-2-yl)methyl 3-(adamantan-1-yl)propanoate]
[1]; [3]
  IC50: 3.9 nM
[2]
  solubility at 24 h: < 1 µg/mL
